# Measurements published in patent US20050032904A1, “Composition and use of allylamine derivatives” (priority 2003, published 2005).
# What was measured:
# [1] = system: p53, p21/Cip1 and p27/Kip1 protein in COLO 205 tumor tissues; experiment: Immunocytochemical staining of COLO 205 tumor tissues; type: in vivo, nude mouse; conditions: TB-treated vs DMSO-treated nude mice
# [2] = system: p53 binding to p21/Cip1 promoter DNA, nuclear extracts of COLO 205 cells; experiment: Electrophoretic mobility shift assay (EMSA); type: cell-based, human; conditions: 60 μM TB
# Method: Antisense or sense p53 was added to COLO 205 at a final concentration of 20 μM at 16 h before the cell was challenged with 10% FCS and 60 μM TB treatment for additional 15 h. […] The radio labeled DNA (4 ng, 100,000 cpm) was incubated with nuclear extract in 15 μl of binding buffer (10 mM Tris-HCl, pH 8.0, 1 mM EDTA, 10% glycerol, 200 mM NaCl, and 1 μg probe DNA) on ice for 5 min. The samples were electrophoresed in a 5% polyacrylamide gel, dried on Whatman 3M paper, and then exposed to Fuji x-ray films at -70° C.
# [3] = system: cell cycle regulatory proteins in COLO 205 cells; experiment: Western blot of cell cycle regulatory proteins; type: cell-based, human
# Method: They were then returned to culture media supplemented with 10% FCS and 0.05% DMSO with or without TB (60 μM), and at various times thereafter, they were harvested for protein extraction and Western blot analysis. Based on the FACS analysis in the COLO 205 cells, 0, 15, 18 and 24 h after release from quiescence represents the G0/G1, S, G2/M and 2nd G0/G1 phase of the cell cycle, respectively. (FIG. 2A). Accordingly, these time points were selected for protein extraction and Western blot analysis to examine the effects of TB on the expression of cell cycle regulatory proteins. In FIG. 6, (A) In the DMSO-treated COLO 205, 10% FCS caused a transit increase in p21/Cip1 protein (upper panel). […] The COLO 205 cells were synchronized with 0.04% FCS for 24 h, and then released into complete medium (10% FCS) containing TB (60 μM) for the indicated time points. COLO 205 cells were also treated with DMSO (0.05%, v/v) as a control group. Protein extracts (100 μg/lane) were separated by SDS-PAGE, probed with specific antibodies, and detected using the NBT/BCIP system. […] (LaBaer J, et. al., Genes & Development 1997;11(7):847-62.).
# In contrast, TB induced apoptosis in the HL 60 (p53 null) and Hep 3B (p53 partial deleted). […] To further test this hypothesis, the dose effects of TB on the levels of cell cycle regulatory protein were conducted in four different human cancer cell lines, COLO 205 (p53 wild type), HT 29 (p53 His^273 mutant), Hep 3B (p53 partial deleted) and HL 60 (p53 null). […] The cells were rendered quiescent for 24 h, and then challenged with 10% FCS and treated with various concentrations of TB (60-150 μM) for additional 15 h. Protein extracts (100 μg/lane) were separated by SDS-PAGE, probed with specific antibodies, and detected using the NBT/BCIP system. Membranes were also probed with anti-GAPDH antibody to correct for differences in protein loading.
# As previously described (Chen R J, et. al., Toxicology & Applied Pharmacology 2000;169(2):132-41.), the frozen tumor was pulverized in liquid N2, and then mixed with lysis buffer (Tris-HCl 0.5 M, pH 6.8, SDS 0.4%). For cell cultures, the cells were seeded onto 150-mm dishes and grown in RPMI 1640 (for COLO 205, HT 29 and HL 60 cells) or MEM (for Hep 3B) supplemented with 10% FCS. After the cells had grown to subconfluence, they were rendered quiescent. The cells were released from quiescence with culture medium supplemented with 10% FCS. TB in 0.05% DMSO or 0.05% DMSO without TB was added to the cells at various concentrations and the mixture was allowed to incubate for 17 h. Western blot analysis was performed as previously described (Chen R J, et. al., Toxicology & Applied Pharmacology 2000;169(2):132-41; Lee W S, et. al., Circulation Research 1998;82(8):845-51.). Immunodetection was carried by probing with proper dilutions of specific antibodies at room temperature for 2 h. Anti-p21/Cip1, anti-p27/Kip1, anti-p53, anti-GAPDH monoclonal antibodies (Santa Cruz, Inc. CA); anti-cyclin B1, D1, and D3, anti-cdk2 and cdk4, and PCNA monclonal antibodies (Transduction Laboratories, Lexington, Ky.) were used at a concentration of 1:1,000 dilution. Anti-cyclin A and E polyclonal antibodies (Transduction, San Diego, Calif.) were used at a concentration of 1:250 dilution. The secondary antibodies, alkaline phosphatase-coupled anti-mouse or anti-rabbit antibody (Jackson, Westgrove Pa.), was incubated at room temperature for 1 h at a concentration of 1:5,000 or 1:1,000 dilution, respectively. The specific protein complexes were identified by incubating with the colorigenic substrates (nitro blue tetrazolium, NBT, and 5-bromo-4-chloro-3-indolyl-phosphate, BCIP; Sigma Chemical Co., St. Louis, Mo.). In each experiment, membranes were also probed with anti-GAPDH antibody to correct for differences in protein loading.
# [4] = system: p53 and p21/Cip1 protein in COLO 205 tumor; experiment: Western blot of COLO 205 tumor; type: in vivo, nude mouse; conditions: tumor isolated at 6 weeks after TB treatment
# Method: Western blot analyses show the levels of p53 and p21/Cip1 protein in COLO 205 tumor (C). COLO 205 tumors were isolated for protein extraction at 6 weeks after DMSO or TB treatment. Membranes were also probed with anti-GAPDH antibody to correct for differences in protein loading. […] Western blot analysis was performed as previously described (Chen R J, et. al., Toxicology & Applied Pharmacology 2000;169(2):132-41; Lee W S, et. al., Circulation Research 1998;82(8):845-51.). Immunodetection was carried by probing with proper dilutions of specific antibodies at room temperature for 2 h. Anti-p21/Cip1, anti-p27/Kip1, anti-p53, anti-GAPDH monoclonal antibodies (Santa Cruz, Inc. CA); anti-cyclin B1, D1, and D3, anti-cdk2 and cdk4, and PCNA monclonal antibodies (Transduction Laboratories, Lexington, Ky.) were used at a concentration of 1:1,000 dilution. Anti-cyclin A and E polyclonal antibodies (Transduction, San Diego, Calif.) were used at a concentration of 1:250 dilution. […] In each experiment, membranes were also probed with anti-GAPDH antibody to correct for differences in protein loading.
# [5] = cited from earlier work
# HT29 = experiment: Determination of cell growth curve (cell counting); type: cell-based, human; conditions: 5 days
# Method: (§1) The effect of TB on the growth of various human cancer cells […]. In FIG. 1, (A) COLO205, (B) HT29, (C) HepG2, (D) Hep3B, (E) HL60, and (F) normal human fibroblast cells were treated with various concentrations of TB (30 to 120 μM). Media with or without TB were renewed daily until cell counting. Three samples were analyzed in each group. Values represent mean±S.E. The cells were cultured for 5 days with or without TB (30-120 μM), and then the cells were harvested and counted. […] Human colon cancer, hepatoma, leukemia, and human normal fibroblast cells at a density of 1×10^4 were plated in 35-mm Petri dishes. TB was added at the indicated doses in 0.05% dimethyl-sulfoxide (DMSO). For control specimens, the same volume of the 0.05% DMSO without TB was added. Media with and without TB were changed daily until cell counting
# HL60 = experiment: Determination of cell growth curve (cell counting); type: cell-based, human; conditions: 5 days
# Method: as §1
# Hep3B = experiment: Determination of cell growth curve (cell counting); type: cell-based, human; conditions: 5 days
# Method: as §1
# HepG2 = experiment: Determination of cell growth curve (cell counting); type: cell-based, human; conditions: 5 days
# Method: as §1
# [6] = TB 60-150 μM, 15 h, dose-dependent
# [7] = daily oral 250 mg TB for 4 weeks, human study
# [8] = TB 30-120 μM, media renewed daily, dose-dependent
# [9] = TB concentration increased to 60 μM
compound,measurement,setting,value
"CN(C/C=C/C#CC(C)(C)C)Cc1cccc2ccccc12 [TB, 1-Naphthalenemethanamine, N-(6,6-dimethyl-2-hepten-4-ynyl)-N-methyl-, (E)-]","p53, p21/Cip1 and p27/Kip1 immunoreactivities in tumor tissues",[1],strongly induced
same,binding between p53 protein and p53 consensus binding site in p21/Cip1 promoter DNA probe,[2],increased the binding
same,p53 and p21 electrophoretogram bands,"[3]; 60 μM TB alone, 15 h",increased in intensity
same,"p21/Cip1 protein level, time effect",[3]; TB 60 μM after release from quiescence,persistent increase
same,"p27/Kip1 protein levels, time effect","[3]; TB 60 μM, 0-24 h after 10% FCS",maintained at high levels
same,Cyclin A2 and cyclin B levels,"[3]; TB 60 μM, time course",also downregulated
same,level of pRB protein (phosphorylated Rb),"[3]; TB 60 μM, time course",downregulated
same,levels of cyclin D1 and PCNA protein,"[3]; TB 60 μM, time course",not changed
same,"levels of cyclin D3, cdk2 and cdk4 protein","[3]; TB 60 μM, time course",downregulated
same,levels of cyclin E protein,"[3]; TB 60 μM, time course",slightly elevated
same,"levels of cyclin D3 and cdk4, dose effect",[3]; [6],decreased
same,"levels of p53, p21/Cip1 and p27/Kip1 protein, dose effect",[3]; [6],increased
same,contents of p53 and p21/Cip1 in tumor,[4],increased
same,fraction of TB absorbed,[5]; after an oral dose (250 mg),approximately 70%
same,maximum plasma concentrations,[5]; after an oral dose (250 mg),0.5 to 1.5 µg/mL
same,time to reach maximum plasma concentrations,[5]; after an oral dose (250 mg),≤ 2 h
same,plasma level of TB,[5]; [7],1700 ± 770 ng/mL
same,plasma level of TB (molar),[5]; [7],5.83 µM
same,cell number,HT29; [8],decreased cell number
same,cell growth at TB 60 μM,HT29; [9],cell growth arrest or cell death
same,cell number,HL60; [8],decreased cell number
same,cell growth at TB 60 μM,HL60; [9],cell growth arrest or cell death
same,cell number,Hep3B; [8],decreased cell number
same,cell growth at TB 60 μM,Hep3B; [9],cell growth arrest or cell death
same,cell number,HepG2; [8],decreased cell number
same,cell growth at TB 60 μM,HepG2; [9],cell growth arrest or cell death
